Experimental data from patent US3933793A, “Therapeutically active 2-aminoalkylthio-3H-1.5-benzodiazepines and process for preparing them” (Recordati S.A. Chemical and Pharmaceutical Company, priority 1971, dated 1976).
In brackets after ≈: the same amount, converted by molar mass. Structures can show the parent of a compound that is named as a salt.

Legend:
Experiment in all cases: Antibacterial activity, minimum inhibitory concentration
Escherichia coli 100 = conditions: Escherichia coli, 100, 18 h, read-out: minimum inhibitory concentration, B. coli
[1] = system: Bacillus subtilis ATCC 9466; conditions: ATCC9466, 18 h, read-out: minimum inhibitory concentration, B. subtilis
[2] = system: Micrococcus pyogenes SG-511; conditions: Staphylococcus aureus, SG511, 18 h, read-out: minimum inhibitory concentration, M. pyogenes
[3] = system: Streptococcus pyogenes A 88; conditions: A88, 18 h, read-out: minimum inhibitory concentration, S. pyogenes

| Compound | MIC (Escherichia coli 100) [µg/mL] | MIC [1] [µg/mL] | MIC [2] [µg/mL] | MIC [3] [µg/mL] |
| --- | --- | --- | --- | --- |
| CCCCSc1ccc(C2=Nc3ccccc3N=C(SCC[N+](C)(CC)CC)C2)cc1 [Compound 82] | 10 | 2.5 | 2.5 | 2.5 |
| c1ccc(C2=Nc3ccccc3N=C(SCCN3CCCC3)C2)cc1 [Compound 57] | – | 160 (≈ 458 µM) | 80 (≈ 229 µM) | 80 (≈ 229 µM) |
| C[N+]1(C)CCN(CCCSC2=Nc3ccccc3N=C(c3ccccc3)C2)CC1 [Compound 9, 2,gamma,N'-methyl-N-piperazine-n-propylthio-4-phenyl-3H-1,5-benzodiazepine monoiodomethylate] | – | 160 | 160 | 80 |
| CCN(CC)CCSC1=Nc2ccccc2N=C(c2ccccc2)C1 [Compound 53] | 80 (≈ 228 µM) | 80 (≈ 228 µM) | 80 (≈ 228 µM) | – |
| CCCSc1ccc(C2=Nc3ccccc3N=C(SCCN(CC)CC)C2)cc1 [Compound 77] | – | 5 (≈ 11.7 µM) | 10 (≈ 23.5 µM) | 5 (≈ 11.7 µM) |
| c1ccc(Sc2ccc(C3=Nc4ccccc4N=C(SCCN4CCCC4)C3)cc2)cc1 [Compound 43, 2,beta,N-pyrrolidinoethylthio-4,p-phenylthiophenyl-3H-1,5-benzodiazepine] | – | 1.25 (≈ 2.73 µM) | – | 1.25 (≈ 2.73 µM) |
| CN(C)CCSC1=Nc2ccccc2N=C(c2ccc(Sc3ccccc3)cc2)C1 [Compound 45, 2,beta,N-dimethylaminoethylthio-4,p-phenylthiophenyl-3H-1,5-benzodiazepine citrate] | – | 20 | – | – |
| CC[N+](C)(CC)CCSC1=Nc2ccccc2N=C(c2ccccc2Cl)C1 [Compound 24, 2,β,N-diethylaminoethylthio-4,o-chlorophenyl-3H-1,5-benzodiazepine iodomethylate] | – | – | 80 | – |
| C[N+](C)(C)CCCSC1=Nc2ccccc2N=C(c2ccccc2)C1 [Compound 12, 2,gamma,N-dimethylaminopropylthio-4-phenyl-3H-1,5-benzo-diazepine iodomethylate] | 80 | 160 | – | 80 |
| CCN(CC)CCSC1=Nc2ccccc2N=C(c2ccc(Oc3ccccc3)cc2)C1 [Compound 27, 2,beta,N-diethylaminoethylthio-4,p-phenoxyphenyl-3H-1,5-benzodiazepine.HCl] | 80 | 10 | – | – |

The next lines start with the values.

| MIC (Escherichia coli 100) [µg/mL] | MIC [1] [µg/mL] | MIC [2] [µg/mL] | MIC [3] [µg/mL] | Compound |
| --- | --- | --- | --- | --- |
| 160 | 80 | – | – | C[N+]1(C)CC[N+](C)(CCSC2=Nc3ccccc3N=C(c3ccc(Sc4ccccc4)cc3)C2)CC1 [Compound 36, 2,beta,N(N'-methyl)piperazinoethylthio-4-p-phenylthiophenyl-3H-1,5-benzodiazepine bis-iodomethylate] |
| 20 | 20 | 40 | – | CC[N+](C)(CC)CCSC1=Nc2ccccc2N=C(c2ccc(Cl)cc2)C1 [Compound 18, 2,beta,N-diethylaminoethylthio-4,p-chlorophenyl-3H-1,5-benzodiazepine iodomethylate] |
| – | – | – | 80 (≈ 210 µM) | CCN(CC)CCSC1=Nc2ccccc2N=C(c2ccc(OC)cc2)C1 [Compound 69] |
| – | 5 (≈ 10.6 µM) | 5 (≈ 10.6 µM) | 5 (≈ 10.6 µM) | c1ccc(Sc2ccc(C3=Nc4ccccc4N=C(SCCCN4CCCC4)C3)cc2)cc1 [Compound 37, 2,gamma,pyrrolidinopropylthio-4,p-phenylthiophenyl-3H-1,5-benzodiazepine.HC] |
| 160 (≈ 440 µM) | 80 (≈ 220 µM) | 80 (≈ 220 µM) | – | c1ccc(C2=Nc3ccccc3N=C(SCCN3CCCCC3)C2)cc1 [Compound 59] |
| 80 (≈ 174 µM) | – | – | – | CCN(CC)CCSC1=Nc2ccccc2N=C(c2ccc(Sc3ccccc3)cc2)C1 [Compound 29, 2,beta-N-diethylaminoethylthio-4,p-phenylthiophenyl-3H-1,5-benzodiazepine.HOl] |
| – | 20 | 40 | 20 | CCN(CC)CCSC1=Nc2ccccc2N=C(c2ccc(Cl)cc2)C1 [Compound 17, 2,beta,N-diethylaminoethylthio-4,p-chlorophenyl-3H-1,5-benzodiazepine^.HCl] |
